Experimental data reported in patent US8450357B2, “Compositions comprising an aryl pyrazole and/or a formamidine, methods and uses thereof” (Merial Limited, priority 2008, dated 2013).

Tested on: fleas (Ctenocephalides felis)
Assay: Study B: flea efficacy of Compound 1 spot-on formulations in dogs
Assay type: in vivo
Excerpt: A separate clinical efficacy study in dogs was designed with an untreated control group and 5 test groups treated with compound 1. Each group had six dogs. Test articles were formulated as topical spot-on solutions containing compound 1, 10-20% w/v in a solvent or a combination of solvents as described above. Dogs were infested with approximately 50 ticks (Rhipicephalus sanguineus) on days −1, 7, 14, 21, 28, 35 and 42. Dogs were also infested with approximately 100 fleas (Ctenocephalides felis) on days −1, 8, 15, 22, 29, 36, and 43. Treatment was applied by parting the hair and applying the formulation directly onto the skin on one spot at the midline of the neck, between the base of the skull and the shoulder blades. […] […] It should be noted that Study A and Study B were conducted at different times and locations, and the results of each clinical study may differ from the other based on various environmental factors. Thus, the results of one clinical study should not be compared with those of another due to these factors.

In the case of `Cc1c([S+]([O-])C(F)(Cl)Cl)c(C#N)nn1-c1c(F)cc(C(F)(F)F)cc1Cl` (stereo not drawn) [Compound 1, 3-cyano-1-(2-chloro-6-fluoro-4-trifluoromethylphenyl)-4-dichlorofluoromethylsulfinyl-5-methyl-1H-pyrazole], the “% Efficacy against fleas” value (Day 2, Trt. Group 2: 0.1 ml/kg (10 mg/kg) in Triacetin) is reported as 100%, the “% Efficacy against fleas” value (Day 2, Trt. Group 3: 0.2 ml/kg (20 mg/kg) in Triacetin) is reported as 100% and the “% Efficacy against fleas” value (Day 2, Trt. Group 4: 10 mg/kg in Diisopropyl adipate) is reported as 100%. For the same compound, the “% Efficacy against fleas” value (Day 2, Trt. Group 5: 10 mg/kg in Diethylene glycol monoethyl ether (transcutol)) was 100%, the “% Efficacy against fleas” value (Day 2, Trt. Group 6: 10 mg/kg in Triacetin/diisopropyl adipate) was 100% and the “% Efficacy against fleas” value (Day 9, Trt. Group 2: 0.1 ml/kg (10 mg/kg) in Triacetin) was 100%. The “% Efficacy against fleas” value (Day 9, Trt. Group 3: 0.2 ml/kg (20 mg/kg) in Triacetin) was 100%, the “% Efficacy against fleas” value (Day 9, Trt. Group 4: 10 mg/kg in Diisopropyl adipate) was 100% and the “% Efficacy against fleas” value (Day 9, Trt. Group 5: 10 mg/kg in Diethylene glycol monoethyl ether (transcutol)) was 100%. The “% Efficacy against fleas” value (Day 9, Trt. Group 6: 10 mg/kg in Triacetin/diisopropyl adipate) was 100%, the “% Efficacy against fleas” value (Day 16, Trt. Group 2: 0.1 ml/kg (10 mg/kg) in Triacetin) was 100% and the “% Efficacy against fleas” value (Day 16, Trt. Group 3: 0.2 ml/kg (20 mg/kg) in Triacetin) was 100%. For the same compound, the “% Efficacy against fleas” value (Day 16, Trt. Group 4: 10 mg/kg in Diisopropyl adipate) was 100%, the “% Efficacy against fleas” value (Day 16, Trt. Group 5: 10 mg/kg in Diethylene glycol monoethyl ether (transcutol)) was 100% and the “% Efficacy against fleas” value (Day 16, Trt. Group 6: 10 mg/kg in Triacetin/diisopropyl adipate) was 100%. The “% Efficacy against fleas” value (Day 23, Trt. Group 2: 0.1 ml/kg (10 mg/kg) in Triacetin) was 99.8%, the “% Efficacy against fleas” value (Day 23, Trt. Group 3: 0.2 ml/kg (20 mg/kg) in Triacetin) was 99.8% and the “% Efficacy against fleas” value (Day 23, Trt. Group 4: 10 mg/kg in Diisopropyl adipate) was 100%. The “% Efficacy against fleas” value (Day 23, Trt. Group 5: 10 mg/kg in Diethylene glycol monoethyl ether (transcutol)) was 99.8%, the “% Efficacy against fleas” value (Day 23, Trt. Group 6: 10 mg/kg in Triacetin/diisopropyl adipate) was 99.8% and the “% Efficacy against fleas” value (Day 30, Trt. Group 2: 0.1 ml/kg (10 mg/kg) in Triacetin) was 99.7%. For the same compound, the “% Efficacy against fleas” value (Day 30, Trt. Group 3: 0.2 ml/kg (20 mg/kg) in Triacetin) was 100%, the “% Efficacy against fleas” value (Day 30, Trt. Group 4: 10 mg/kg in Diisopropyl adipate) was 100% and the “% Efficacy against fleas” value (Day 30, Trt. Group 5: 10 mg/kg in Diethylene glycol monoethyl ether (transcutol)) was 100%. The “% Efficacy against fleas” value (Day 30, Trt. Group 6: 10 mg/kg in Triacetin/diisopropyl adipate) was 100%, the “% Efficacy against fleas” value (Day 37, Trt. Group 2: 0.1 ml/kg (10 mg/kg) in Triacetin) was 99.8% and the “% Efficacy against fleas” value (Day 37, Trt. Group 3: 0.2 ml/kg (20 mg/kg) in Triacetin) was 100%. For the same compound, the “% Efficacy against fleas” value (Day 37, Trt. Group 4: 10 mg/kg in Diisopropyl adipate) was 98.9%, the “% Efficacy against fleas” value (Day 37, Trt. Group 5: 10 mg/kg in Diethylene glycol monoethyl ether (transcutol)) was 100% and the “% Efficacy against fleas” value (Day 37, Trt. Group 6: 10 mg/kg in Triacetin/diisopropyl adipate) was 100%. For the same compound, the “% Efficacy against fleas” value (Day 44, Trt. Group 2: 0.1 ml/kg (10 mg/kg) in Triacetin) was 100%, the “% Efficacy against fleas” value (Day 44, Trt. Group 3: 0.2 ml/kg (20 mg/kg) in Triacetin) was 100% and the “% Efficacy against fleas” value (Day 44, Trt. Group 4: 10 mg/kg in Diisopropyl adipate) was 99.6%. The “% Efficacy against fleas” value (Day 44, Trt. Group 5: 10 mg/kg in Diethylene glycol monoethyl ether (transcutol)) was 100%, the “% Efficacy against fleas” value (Day 44, Trt. Group 6: 10 mg/kg in Triacetin/diisopropyl adipate) was 100% and the “% Efficacy against fleas” value (Day 51, Trt. Group 2: 0.1 ml/kg (10 mg/kg) in Triacetin) was 99.8%. The “% Efficacy against fleas” value (Day 51, Trt. Group 3: 0.2 ml/kg (20 mg/kg) in Triacetin) was 99.7%, the “% Efficacy against fleas” value (Day 51, Trt. Group 4: 10 mg/kg in Diisopropyl adipate) was 98.5% and the “% Efficacy against fleas” value (Day 51, Trt. Group 5: 10 mg/kg in Diethylene glycol monoethyl ether (transcutol)) was 100%. The “% Efficacy against fleas” value (Day 51, Trt. Group 6: 10 mg/kg in Triacetin/diisopropyl adipate) was 100%, the “% Efficacy against fleas” value (Day 58, Trt. Group 2: 0.1 ml/kg (10 mg/kg) in Triacetin) was 99.6% and the “% Efficacy against fleas” value (Day 58, Trt. Group 3: 0.2 ml/kg (20 mg/kg) in Triacetin) was 99.0%. For the same compound, the “% Efficacy against fleas” value (Day 58, Trt. Group 4: 10 mg/kg in Diisopropyl adipate) was 96.7%, the “% Efficacy against fleas” value (Day 58, Trt. Group 5: 10 mg/kg in Diethylene glycol monoethyl ether (transcutol)) was 100% and the “% Efficacy against fleas” value (Day 58, Trt. Group 6: 10 mg/kg in Triacetin/diisopropyl adipate) was 98.8%.
